The source of these data is article PMC2657875 (Biochemistry, 2008).

The structures appear in SMILES notation. Read-outs that look alike come from different tables or passages of the source.

Data set [1] has as its target T1, human NAMPT (Homo sapiens, UniProt P43490). In words: ADP/ATP isotope exchange catalyzed by NAMPT. The following applies: for concentration required for half-maximal exchange activity: ADP/ATP exchange, 0.6 µM enzyme. In kind it is biochemical.
Data set [2] deals with T1, human NAMPT. The data set is described as follows: NAMPT kinetic parameters with ATP. In kind it is biochemical.
For data set [3] the following is noted: cited from earlier work.
Data set [4] concerns human vascular smooth muscular cells. As to conditions: cited from earlier work.
Data set [5] deals with T1, human NAMPT. In words: Inhibition of ATP-coupled NMN synthesis. In kind it is biochemical.
Data set [6] deals with T1, human NAMPT. In words: Inhibition of non ATP-coupled NMN synthesis. In kind it is biochemical.
For data set [7], the target named is T1, human NAMPT. As to conditions: continuous fluorometric coupled assay, with ATP (2.5 mM).
For data set [8], the target named is T1, human NAMPT. The data set is described as follows: NAMPT kinetic parameters without ATP. In kind it is biochemical. As to conditions: non ATP-coupled NMN synthesis.
Data set [9] deals with T1, human NAMPT. In words: Stimulated ATPase activity of NAMPT. In kind it is biochemical. The following applies: 1 mM compound, 2 mM ATP; for ATP hydrolysis rate (ATPase activity): […] enzyme.
Data set [10] deals with Salmonella typhimurium NAPT. The following applies: cited from earlier work.

T1 sequence (P43490 whole entry): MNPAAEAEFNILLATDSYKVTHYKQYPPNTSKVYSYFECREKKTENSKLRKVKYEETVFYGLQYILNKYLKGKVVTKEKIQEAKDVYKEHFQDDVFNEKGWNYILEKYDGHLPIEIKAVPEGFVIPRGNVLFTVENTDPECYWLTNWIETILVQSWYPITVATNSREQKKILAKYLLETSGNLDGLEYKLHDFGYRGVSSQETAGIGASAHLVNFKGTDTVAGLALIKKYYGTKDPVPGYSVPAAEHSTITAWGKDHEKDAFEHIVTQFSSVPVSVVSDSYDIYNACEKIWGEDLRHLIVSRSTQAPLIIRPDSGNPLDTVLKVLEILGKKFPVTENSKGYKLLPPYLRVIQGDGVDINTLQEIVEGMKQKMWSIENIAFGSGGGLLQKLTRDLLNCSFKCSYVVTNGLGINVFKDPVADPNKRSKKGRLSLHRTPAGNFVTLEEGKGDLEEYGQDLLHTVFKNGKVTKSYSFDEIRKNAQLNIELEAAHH

Regarding `Nc1ncnc2c1ncn2[C@@H]1O[C@H](COP(=O)(O)OP(=O)(O)O)[C@@H](O)[C@H]1O` [ADP], at human NAMPT [1], the “concentration required for half-maximal exchange activity” value came out at 0.44 ± 0.05 mM.

For `Nc1ncnc2c1ncn2[C@@H]1O[C@H](COP(=O)(O)OP(=O)(O)OP(=O)(O)O)[C@@H](O)[C@H]1O` [ATP], on human NAMPT [2] (ATP-coupled NMN synthesis), the Km (in general, the concentration of substrate that gives half-maximal velocity) was found to be 7400 ± 1500 µM and the “concentration above which NMN synthesis is inhibited” value is on record as “above 4 mM”. Also, the “concentration required for half-maximal exchange activity” value on human NAMPT [1] is reported as 2.2 ± 0.2 mM.

Take `Nc1ncnc2c1ncn2[C@@H]1O[C@H](COP(=O)(O)OP(=O)(O)OP(=O)(O)OP(=O)(O)OP(=O)(O)OC[C@H]2O[C@@H](n3cnc4c(N)ncnc43)[C@H](O)[C@@H]2O)[C@@H](O)[C@H]1O` [Ap5A, P^1,P^5-di(adenosine-5’-) pentaphosphate, reference compound]: the “effect on ADP/ATP exchange” value on human NAMPT [1] (10 µM) is “retained the same exchange rate”.

For `O=C(/C=C/c1cccnc1)NCCCCC1CCN(C(=O)c2ccccc2)CC1` [FK866, (E)-N-[4-(1-benzoylpiperidin-4-yl)butyl]-3-(pyridin-3-yl) acrylamide], in [3] (clinical trials), the “binding to plasma proteins” value was “substantial drug binding to plasma proteins”, the bioavailability entry was “low bioavailability” and the intravenous clearance result is “rapid intravenous clearance”. Moreover, the objective responses entry in [3] (continuous intravenous infusions over 96 h for a period of 4 weeks) is “no objective responses”. In data set [4], the “NAD+ levels” value is on record as “low levels of NAD^+” and the SIRT1 activity result is reported as “decrease of SIRT1 activity”.

Turning to `NC(=O)C1=CN([C@@H]2O[C@H](COP(=O)(O)OP(=O)(O)OC[C@H]3O[C@@H](n4cnc5c(N)ncnc54)[C@H](O)[C@@H]3O)[C@@H](O)[C@H]2O)C=CC1` [NADH], the “Ratio Km/Ki (NAM)” value at human NAMPT [5] (2.5 mM ATP) is reported as less than 1. On human NAMPT [5] (2.5 mM ATP), the “Ratio Km/Ki (PRPP)” value amounted to 3. Also, the Ki (in general, the equilibrium dissociation constant of an inhibitor or competing ligand from its target) was 3200 ± 200 nM at human NAMPT [5] (read-out: Ki versus NAM, 2.5 mM ATP); 220 ± 20 nM on human NAMPT [5] (read-out: Ki versus PRPP, 2.5 mM ATP); greater than 100000 nM on human NAMPT [6] (read-out: Ki versus NAM, non ATP-coupled NMN synthesis, competitive vs NAM).

With `NC(=O)c1ccc[n+]([C@@H]2O[C@H](COP(=O)([O-])OP(=O)(O)OC[C@H]3O[C@@H](n4cnc5c(N)ncnc54)[C@H](O)[C@@H]3O)[C@@H](O)[C@H]2O)c1` [NAD^+, nicotinamide adenine dinucleotide], on human NAMPT [5] (2.5 mM ATP), the “Ratio Km/Ki (NAM)” value is less than 1. Moreover, the “Ratio Km/Ki (PRPP)” value at human NAMPT [5] (2.5 mM ATP) came out at 5. The Ki was 2100 ± 200 nM on human NAMPT [5] (Ki versus NAM, 2.5 mM ATP); 140 ± 14 nM at human NAMPT [5] (Ki versus PRPP, 2.5 mM ATP); greater than 100000 nM on human NAMPT [6].

On to `NC(=O)c1cccnc1` [NAM, nicotinamide], for which the Michaelis-Menten constant (Km) amounted to 0.017 ± 0.002 µM on human NAMPT [2] (read-out: apparent Km (affinity), direct [14C]NAM assay with ATP, NAD+ present); 0.057 ± 0.006 µM on human NAMPT [7]; 0.855 ± 0.022 µM on human NAMPT [8] (no Pi); 0.235 ± 0.017 µM at human NAMPT [8] (with Pi (2 mM phosphate)).

As to `O=P(O)(O)NP(=O)(O)O` [PNP, imidodiphosphate, reference compound], on human NAMPT [9], the “ATP hydrolysis rate (ATPase activity)” value is 2.6 min⁻¹.

With `O=P(O)(O)OC[C@H]1O[C@H](OP(=O)(O)OP(=O)(O)O)[C@H](O)[C@@H]1O` [PRPP, α-D-5-phosphoribosyl-1-pyrophosphate], the Michaelis constant (Km) is 0.63 ± 0.03 µM at human NAMPT [2] (ATP-coupled NMN synthesis); 7.2 ± 0.6 µM on human NAMPT [8] (no Pi); 11.7 ± 0.8 µM at human NAMPT [8] (with Pi (2 mM phosphate)); 22 ± 3.3 µM in [10] (ATP-coupled NAMN synthesis); 4500 ± 2200 µM in [10] (non ATP-coupled NAMN synthesis). In addition, the “fold lowering of Km by ATP” value on human NAMPT [2] (ATP-coupled vs non ATP-coupled) turned out to be 10 fold. The “effect on ADP/ATP exchange” value on human NAMPT [1] (100 µM) was “near-complete inhibition”. The “effect on ATP hydrolysis” value at human NAMPT [9] was “inhibited ATP hydrolysis”.

Take `O=P(O)(O)O` [Pi]: on human NAMPT [8] (read-out: Km of Pi), the Km turned out to be 180 ± 20 µM.

`O=P(O)(O)OP(=O)(O)O` [pyrophosphate]: at human NAMPT [9], the “ATP hydrolysis rate (ATPase activity)” value amounted to 1.1 min⁻¹.
